Results as given in article PMC7932537, “Quantitative profiling of protease specificity” (PLoS Computational Biology, 2021).

Assays:
MMP-2 = test: Substrate phage display with NGS: relative probability (RP) of P3-P1' tetramer clusters; format: biochemical, human; settings: for relative probability (RP) of matching tetramer: P3-P1' tetramer matching the MS detected MMP2 cleavage sequence, RP_above_4.5; for avg_RP: MMP2 - no binning, redundant tetramers have been averaged out; for normalized RP - MMP2: normalized RP of matching tetramer; for MMP2 relative probability (RP): MMP2 tetramers from unique substrates, unrounded values
MMP-9 = test: as above; format: biochemical, human; settings: for normalized RP - MMP9: normalized RP of matching tetramer; for corresponding MMP9 relative probability (RP): MMP2 tetramers from unique substrates, RP of same tetramer for MMP9
[1] = RP of the P3-P1' tetramer, MMP2 substrate phage display/NGS, tetramers of physiologic MEROPS substrates common to MMP2 and MMP9
[2] = RP of the P3-P1' tetramer, MMP9 substrate phage display/NGS, tetramers of physiologic MEROPS substrates common to MMP2 and MMP9
[3] = MMP2, RP of matching P3-P1' tetramer, common set of MMP2-9 selectome, RP above KL threshold
[4] = RP of matching tetramer, common MMP2-9 selectome
[5] = MMP9, RP of matching P3-P1' tetramer, common set of MMP2-9 selectome
[6] = MMP9, RP of the P3-P1' tetramer matching the MS detected cleavage, RP above 4.7, substrate phage display with NGS
[7] = RP of matching tetramer, common MMP2-9 selectome, RP above KL threshold
[8] = RP of matching tetramer, unique part of MMP2 selectome, RP above KL threshold
[9] = RP of matching tetramer, unique part of MMP2 selectome
[10] = RP of the P3-P1' tetramer cluster contained in the hexamer, 200 nM MMP-2, 2 h, 37°C, two rounds of selection
[11] = MMP9, RP of the P3-P1' tetramer contained in the hexamer substrate (substrate phage display, NGS)
[12] = RP according to MMP2, P3-P1' tetramer of unique physiologic MMP2 substrates from MEROPS
[13] = RP according to MMP9, P3-P1' tetramer of unique physiologic MMP9 substrates from MEROPS

## PEAQ
MMP-2; MMP9 tetramers from unique substrates, RP of same tetramer for MMP2
  corresponding MMP2 relative probability (RP): 6.464
MMP-9; MMP9 tetramers from unique substrates, unrounded values
  MMP9 relative probability (RP): 2.403

## VSHY
MMP-2; [1]
  relative probability (RP) (acc.to MMP2): 21.33
MMP-9; [2]
  relative probability (RP) (acc.to MMP9): 15.49

## PEQL
MMP-2; [3]
  relative probability (RP) (acc.to MMP2): 12.46
MMP-2
  relative probability (RP) of matching tetramer: 12.46
MMP-2; [4]
  relative probability (RP) (acc.to MMP2): 12.46
MMP-9; [5]
  relative probability (RP) (acc.to MMP9): 23.26
MMP-9; [6]
  relative probability (RP): 23.26
MMP-9; [7]
  relative probability (RP) (acc.to MMP9): 23.26

## ARGI
MMP-2; average relative probability (RP) of the P3-P1' tetramer
  avg_RP: 21.2616
MMP-2; [4]
  relative probability (RP) (acc.to MMP2): 21.26
MMP-9; [6]
  relative probability (RP): 31.4
MMP-9; [7]
  relative probability (RP) (acc.to MMP9): 31.4

## LGRY
MMP-2
  relative probability (RP) of matching tetramer: 17.67
MMP-2; [8]
  relative probability (RP) (acc.to MMP2): 17.67
MMP-2; unique part of MMP2 selectome
  normalized RP - MMP2: 0.4838
MMP-9; [9]
  relative probability (RP) (acc.to MMP9): 1.95
MMP-9; unique part of MMP2 selectome
  normalized RP - MMP9: 0.03723

## QSPINL
MMP-2; [10]
  relative probability (RP): 31.6393
MMP-9; [11]
  relative probability (RP): 44.8884

## PIQW
MMP-2
  MMP2 relative probability (RP): 8.258
MMP-2; [12]
  Relative probability (RP) rank: 5694
  relative probability (RP): 8.26
MMP-2; [1]
  relative probability (RP) (acc.to MMP2): 8.26
MMP-9
  corresponding MMP9 relative probability (RP): 1.638
MMP-9; [13]
  Relative probability (RP) rank: 11221
  relative probability (RP): 1.64
MMP-9; [2]
  relative probability (RP) (acc.to MMP9): 1.64

## NRGF
MMP-2
  relative probability (RP) of matching tetramer: 6.81
MMP-2; [8]
  relative probability (RP) (acc.to MMP2): 6.81
MMP-2; unique part of MMP2 selectome
  normalized RP - MMP2: 0.1865
MMP-9; [9]
  relative probability (RP) (acc.to MMP9): 0
MMP-9; unique part of MMP2 selectome
  normalized RP - MMP9: 0

## NPMPIR
MMP-2; [10]
  relative probability (RP): 26.0717
MMP-9; [11]
  relative probability (RP): 45.0822

## DGPVSF
MMP-2; [10]
  relative probability (RP): 24.4524
MMP-9; [11]
  relative probability (RP): 25.1636

## GPRYLM
MMP-2; [10]
  relative probability (RP): 30.5447
MMP-9; [11]
  relative probability (RP): 44.5304

## VRNI
MMP-2; [3]
  relative probability (RP) (acc.to MMP2): 25.21
MMP-2
  relative probability (RP) of matching tetramer: 25.21
MMP-2; [4]
  relative probability (RP) (acc.to MMP2): 25.21
MMP-9; [5]
  relative probability (RP) (acc.to MMP9): 38.1
MMP-9; [6]
  relative probability (RP): 38.1
MMP-9; [7]
  relative probability (RP) (acc.to MMP9): 38.1

## SIPLPL
MMP-2; [10]
  relative probability (RP): 35.0814
MMP-9; [11]
  relative probability (RP): 49.0268

## PVPV
MMP-2; [3]
  relative probability (RP) (acc.to MMP2): 23.04
MMP-2
  relative probability (RP) of matching tetramer: 23.04
MMP-2; [4]
  relative probability (RP) (acc.to MMP2): 23.04
MMP-9; [5]
  relative probability (RP) (acc.to MMP9): 29.89
MMP-9; [6]
  relative probability (RP): 29.89
MMP-9; [7]
  relative probability (RP) (acc.to MMP9): 29.89

## PRPQAA
MMP-2; [10]
  relative probability (RP): 27.2115
MMP-9; [11]
  relative probability (RP): 37.3898

## PSGL
MMP-2; [1]
  relative probability (RP) (acc.to MMP2): 35.5
MMP-9; [2]
  relative probability (RP) (acc.to MMP9): 47.39

## LGRF
MMP-2
  MMP2 relative probability (RP): 13.9898
MMP-2; [12]
  Relative probability (RP) rank: 3427
  relative probability (RP): 13.99
MMP-9
  corresponding MMP9 relative probability (RP): 1.477

## PLSL
MMP-2; average relative probability of the P3-P1' tetramer
  avg_RP: 33.5282
MMP-2; [4]
  relative probability (RP) (acc.to MMP2): 33.53
MMP-9; [6]
  relative probability (RP): 48.17
MMP-9; [7]
  relative probability (RP) (acc.to MMP9): 48.17
